Measured values published in patent publication US20030171617A1, “3,4-Dihydroxymandelic acid alkylamides and use thereof” (priority 2000, published 2003).

What was measured:
[1] = DPPH (1,1-diphenyl-2-picrylhydrazyl) test for the removal of free radicals; assay type: physicochemical; conditions: c(test compound)/c(DPPH); DPPH 100 μmol/l in methanol; absorption at 515 nm
Method: The activity of the exemplary compounds as in examples 1 to 3 as free-radical scavengers was compared with that of conventional free-radical scavengers. For this purpose, the DPPH (1,1-diphenyl-2-picrylhydrazyl) test for the removal of free radicals was used.
DPPH was dissolved in methanol to a concentration of 100 μmol/l. A series of dilutions of the exemplary compounds, vitamin C, α-tocopherol and dibutylhydroxytoluene were prepared in methanol. Methanol served as the control. 2500 μl of the DPPH solution were mixed with 500 μl of each test solution and the decrease in absorption at 515 nm was read until the decrease was less than 2% per hour. The activity of the test substances as free-radical scavengers was calculated according to the following equation:
Activity as free-radical scavenger (%)=100−(absorption of the test compounds)/(absorption of the control)×100.
The activity as free-radical scavenger (%) in a series of dilutions of test compounds was used to calculate, for each test compound, the effective relative concentration EC50 (based on the starting concentration of DPPH, EC=c (test compound)/c(DPPH)) of a test compound at which 50% of the free radical DPPH had been removed.

[2] = Accelerated autoxidation of lipids by air (Rancimat apparatus), antioxidative index; assay type: physicochemical; conditions: AOI=IP(with test solution)/IP(control sample); squalene purified over alumina, stabilized with 1 ppm α-tocopherol; dry air 20 l/h
Method: The activity of the exemplary compounds as in examples 1 to 3 as antioxidants was compared with that of conventional antioxidants. The test system used was the accelerated autoxidation of lipids by air with or without antioxidant using the Rancimat apparatus (Rancimat is a registered trademark of Metrohm AG, Herisau, Switzerland).
The exemplary compounds, vitamin C, α-tocopherol and dibutylhydroxytoluene were dissolved in methanol or acetone, and 100 μl of each test solution were added to a 3 g preprepared oil sample. In a control sample, only solvent was added. A constant stream of dry air (20 l/h) was bubbled through the heated oil sample which contained the test solution, and the volatile oxidation products (predominantly short-chain fatty acids such as formic acid or acetic acid) were collected in a receiver containing water. The conductivity of this aqueous solution was continuously measured and documented. The oxidation of (unsaturated) fats proceeds only very slowly for some time and then suddenly increases. The time to the increase is referred to as the induction period (IP).
The following equation was used to calculate the antioxidative index (AOI):
AOI=IP(with test solution)/IP(control sample).
The results for the experiment at […] in squalene that has been purified over alumina grade N and stabilized with 1 ppm of α-tocopherol are given in table 2: […]

Row | Compound | EC50 (effective relative concentration at which 50% of the free radical DPPH had been removed) [1] [mol/mol] | AOI in squalene at 80° C. with 0.005% of test substance [2]
1 | Cc1c(C)c2c(c(C)c1O)CC[C@@](C)(CCC[C@H](C)CCC[C@H](C)CCCC(C)C)O2 [α-Tocopherol] | 0.25 | 39
2 | Cc1cc(C(C)(C)C)c(O)c(C(C)(C)C)c1 [Dibutylhydroxytoluene] | 0.24 | 38
3 | O=C(NC1CCCCC1)C(O)c1ccc(O)c(O)c1 (stereo not drawn) [Example 2, N-Cyclohexyl-2-(3,4-dihydroxyphenyl)-2-hydroxyacetamide] | 0.11 | 43
4 | O=C1O[C@H]([C@@H](O)CO)C(O)=C1O [Vitamin C] | 0.27 | 0.7
5 | CCCCCCNC(=O)C(O)c1ccc(O)c(O)c1 (stereo not drawn) [Example 3, 2-(3,4-Dihydroxyphenyl)-N-n-hexyl-2-hydroxyacetamide] | 0.12 | 55
6 | CCCCC(CC)CNC(=O)C(O)c1ccc(O)c(O)c1 (stereo not drawn) [Example 1, 2-(3,4-Dihydroxyphenyl)-N-(2-ethylhexyl)-2-hydroxyacetamide] | 0.12 | 69
